Data taken from PubChem BioAssay (NCI).
Several values for one entry are separate records, joined by “and”; a condition that tells them apart may be missing. Identical values can stand only once.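 How tested: cells in 96-well plates exposed to compound for 48 hours at five concentrations. GI50 = concentration required for 50% inhibition of growth. At the TGI there is no net growth.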

Tests used:
Experiment in all cases: NCI tumour cell line growth inhibition, 48 h
DLD-1 colon = test system: DLD-1 colon
DMS 114 small cell lung = test system: DMS 114 small cell lung
DMS 273 small cell lung = test system: DMS 273 small cell lung
HOP-18 NSCLC = test system: HOP-18 NSCLC
RXF-631 renal = test system: RXF-631 renal
SNB-78 CNS = test system: SNB-78 CNS
BT-549 breast = test system: BT-549 breast
MDA-N = test system: MDA-N
P388 leukemia = test system: P388 leukemia
P388/ADR leukemia = test system: P388/ADR leukemia
SN12K1 renal = test system: SN12K1 renal
T-47D breast = test system: T-47D breast

`CC(C)COC(=O)N1N=NC2C3CC(=O)C(O3)C21` (centres undefined) showed a TGI (DLD-1 colon) greater than 100 µM, a TGI (DMS 114 small cell lung) greater than 100 µM and a TGI (DMS 273 small cell lung) greater than 100 µM. It also gave a TGI (HOP-18 NSCLC) greater than 100 µM, a TGI (RXF-631 renal) greater than 100 µM and a TGI (SNB-78 CNS) greater than 100 µM.
In the case of `C[C@]12CC[C@H](OC(=O)Cc3ccc(N(CCCl)CCCl)cc3)CC1CC[C@@H]1C2CC[C@]2(C)NC(=O)CCC12` (some centres undefined), the TGI (DLD-1 colon) is reported as 32.4 µM, the TGI (DMS 114 small cell lung) is reported as 21.9 µM and the TGI (DMS 273 small cell lung) is reported as 20.5 µM. For the same molecule, the TGI (HOP-18 NSCLC) was 31.4 µM, the TGI (RXF-631 renal) was 34.1 µM and the TGI (SNB-78 CNS) was 39.3 µM.
`CC(=O)O[C@H]1CC[C@@]2(C)C(=CC[C@@H]3C2CC[C@]2(C)C(=O)NC(=O)CC32)C1` (some centres undefined) gave a TGI (DLD-1 colon) greater than 100 µM, a TGI (DMS 114 small cell lung) greater than 100 µM and a TGI (DMS 273 small cell lung) greater than 100 µM. The TGI (HOP-18 NSCLC) was greater than 100 µM, the TGI (RXF-631 renal) was greater than 100 µM and the TGI (SNB-78 CNS) was greater than 100 µM.
With `CC1OC(OC23C(=O)CC(C)(O)CC2(O)C=CC2=C3C(=O)c3ccc(C4CC(OC5CCC(OC6CC(O)C(O)C(C)O6)C(C)O5)C(O)C(C)O4)c(O)c3C2=O)CCC1O` (centres undefined) the TGI (DLD-1 colon) was 26.8 µM and 23.8 µM, the GI50 (DMS 114 small cell lung) was 16.5 µM and 8.11 µM and the TGI (DMS 114 small cell lung) was 31 µM and 21.2 µM. For the same molecule, the GI50 (DMS 273 small cell lung) was 20.5 µM and 3.18 µM, the TGI (DMS 273 small cell lung) was 36.3 µM and 10 µM and the TGI (HOP-18 NSCLC) was 31.3 µM and 30.8 µM. For the same molecule, the TGI (RXF-631 renal) was 35.6 µM and 26.5 µM and the TGI (SNB-78 CNS) was 35.2 µM and 34.4 µM.
For `CCOC(=O)C1Nc2ccc([N+](=O)[O-])cc2[C@H]2OCC[C@@H]12` (some centres undefined), the TGI (DLD-1 colon) was greater than 100 µM, the TGI (DMS 114 small cell lung) was greater than 100 µM and the TGI (DMS 273 small cell lung) was greater than 100 µM. The TGI (HOP-18 NSCLC) was greater than 100 µM, the TGI (RXF-631 renal) was greater than 100 µM and the TGI (SNB-78 CNS) was greater than 100 µM.
With `CS(=O)(=O)OCCCCOS(C)(=O)=O` the GI50 (BT-549 breast) was greater than 250 µM, the TGI (BT-549 breast) was greater than 1000 µM and the TGI (DLD-1 colon) was greater than 236 µM. It also gave a TGI (DMS 114 small cell lung) of 250 µM, a TGI (DMS 273 small cell lung) of 245 µM and a TGI (HOP-18 NSCLC) greater than 200 µM. For the same molecule, the GI50 (MDA-N) was greater than 1000 µM, the TGI (MDA-N) was 250 µM and > 1000 µM and the TGI (P388 leukemia) was 250 µM. For the same molecule, the TGI (P388/ADR leukemia) was 246 µM, the TGI (SN12K1 renal) was 224 µM and the TGI (SNB-78 CNS) was 233 µM. It also gave a GI50 (T-47D breast) of 336 µM and a TGI (T-47D breast) greater than 464 µM.
`N#CC1=C(c2ccccc2)NN(Cc2ccccc2)C(c2ccc(Cl)cc2)CC1=O` (centres undefined) showed a TGI (DLD-1 colon) of 49.1 µM, a TGI (DMS 114 small cell lung) greater than 100 µM and a TGI (DMS 273 small cell lung) of 52.8 µM. The TGI (HOP-18 NSCLC) was 73.5 µM, the TGI (RXF-631 renal) was 85.3 µM and the TGI (SNB-78 CNS) was greater than 100 µM.
`NC(N)=NS(=O)(=O)c1ccc(NC(=O)c2cccn3c(=O)c4ccccc4nc23)cc1` was tested, and the TGI (DLD-1 colon) was greater than 100 µM, the TGI (DMS 114 small cell lung) was greater than 100 µM and the TGI (DMS 273 small cell lung) was greater than 100 µM. It also gave a TGI (HOP-18 NSCLC) greater than 100 µM, a TGI (RXF-631 renal) greater than 100 µM and a TGI (SNB-78 CNS) greater than 100 µM.
`CC(C)(C)c1cc(O)c2c(c1O)C(=O)CCC2` showed a TGI (DLD-1 colon) greater than 100 µM, a TGI (DMS 114 small cell lung) of 69.1 µM and a TGI (DMS 273 small cell lung) greater than 100 µM. The TGI (HOP-18 NSCLC) was greater than 100 µM, the TGI (RXF-631 renal) was greater than 100 µM and the TGI (SNB-78 CNS) was greater than 100 µM.
